Reference: the NIST ThermoML archive (doi:10.1016/j.jct.2005.05.019)
Several values for one entry are separate records, joined by “and”; a condition that tells them apart may be missing. Identical values can stand only once.

Settings: Liquid; for mass density: Bellows volumetry; for vapor or sublimation pressure: Closed cell (Static) method

CC(C)C [2-methylpropane]
mass density
Settings	280 K	300 K	320 K	340 K	360 K	380 K	400 K	420 K	440 K
1000 kPa	574.99 kg/m3	550.5 kg/m3	523.69 kg/m3	–	–	–	–	–	–
2000 kPa	576.63 kg/m3	–	526.51 kg/m3	496.95 kg/m3	461.05 kg/m3	–	–	–	–
3000 kPa	578.23 kg/m3	554.67 kg/m3	529.22 kg/m3	500.67 kg/m3	467.32 kg/m3	422.93 kg/m3 and 422.97 kg/m3	–	–	–
4000 kPa	–	–	–	–	–	–	374.9 kg/m3	–	–
5000 kPa	581.15 kg/m3	558.59 kg/m3	534.28 kg/m3	507.71 kg/m3	477.66 kg/m3	441.32 kg/m3 and 441.54 kg/m3	394.02 kg/m3	–	–
10000 kPa	587.88 kg/m3	567.19 kg/m3	545.21 kg/m3	521.75 kg/m3	496.94 kg/m3	468.99 kg/m3 and 469.14 kg/m3	438.72 kg/m3	404.86 kg/m3	366.35 kg/m3
20000 kPa	600.12 kg/m3	581.58 kg/m3	562.64 kg/m3	542.79 kg/m3	522.77 kg/m3	501.27 kg/m3 and 501.58 kg/m3	479.65 kg/m3	457.86 kg/m3	435.91 kg/m3
30000 kPa	610.42 kg/m3	593.56 kg/m3	576.49 kg/m3	558.72 kg/m3	541.32 kg/m3	522.56 kg/m3 and 522.99 kg/m3	504.24 kg/m3	486.44 kg/m3	469.37 kg/m3
40000 kPa	619.36 kg/m3	603.71 kg/m3	587.85 kg/m3	571.75 kg/m3	555.78 kg/m3	539.38 kg/m3	522.85 kg/m3	507.08 kg/m3	492.27 kg/m3
50000 kPa	627.41 kg/m3	612.8 kg/m3	597.69 kg/m3	582.77 kg/m3	568.17 kg/m3	552.44 kg/m3 and 552.92 kg/m3	537.71 kg/m3	523.34 kg/m3	510.21 kg/m3
60000 kPa	634.74 kg/m3	620.94 kg/m3	606.61 kg/m3	592.49 kg/m3	578.92 kg/m3	564.45 kg/m3	550.04 kg/m3	537.02 kg/m3	524.88 kg/m3
70000 kPa	641.52 kg/m3	628.12 kg/m3	614.55 kg/m3	601.18 kg/m3	588.19 kg/m3	574.7 kg/m3	561.13 kg/m3	548.69 kg/m3	537.25 kg/m3
80000 kPa	647.64 kg/m3	634.84 kg/m3	621.94 kg/m3	609.11 kg/m3	596.75 kg/m3	583.67 kg/m3	570.85 kg/m3	559.13 kg/m3	548.44 kg/m3
90000 kPa	653.57 kg/m3	641.05 kg/m3	628.85 kg/m3	616.5 kg/m3	604.39 kg/m3	592.06 kg/m3	579.4 kg/m3	568.43 kg/m3	558.09 kg/m3
100000 kPa	659 kg/m3	646.84 kg/m3	635.06 kg/m3	622.79 kg/m3	611.7 kg/m3	599.29 kg/m3 and 599.44 kg/m3	587.43 kg/m3	576.8 kg/m3	567 kg/m3
120000 kPa	669.09 kg/m3	657.68 kg/m3	646.41 kg/m3	634.99 kg/m3	624.5 kg/m3	612.95 kg/m3	601.69 kg/m3	591.55 kg/m3	582.66 kg/m3
140000 kPa	678.21 kg/m3	667.21 kg/m3	656.55 kg/m3	645.72 kg/m3	635.8 kg/m3	624.62 kg/m3	614.21 kg/m3	604.56 kg/m3	595.99 kg/m3
160000 kPa	686.38 kg/m3	676.01 kg/m3	665.84 kg/m3	655.32 kg/m3	645.85 kg/m3	635.26 kg/m3	625.04 kg/m3	616.21 kg/m3	608.09 kg/m3
180000 kPa	694.06 kg/m3	684 kg/m3	674.38 kg/m3	664.26 kg/m3	655.11 kg/m3	644.86 kg/m3	635.05 kg/m3	626.52 kg/m3	618.72 kg/m3
200000 kPa	701.06 kg/m3	691.43 kg/m3	682.01 kg/m3	672.25 kg/m3	663.39 kg/m3	653.7 kg/m3 and 653.25 kg/m3	644.07 kg/m3	635.99 kg/m3	628.4 kg/m3

Settings	vapor or sublimation pressure [kPa]
280 K	199.8
300 K	369.8
